In experiment [1] the test system is dA10-dT10 (DNA, duplex) AAAAAAAAAA/TTTTTTTTTT
Briefly: HPLC retention shift. As to conditions: NH4+ (ammonium acetate, 100 mM); pH 7.0; signal about 0.5 min earlier with compound.

The test system of experiment [2] is dG12-dC12 (DNA, duplex) GGGGGGGGGGGG/CCCCCCCCCCCC
Kind of experiment: HPLC retention shift. The note with it: NH4+ (ammonium acetate, 100 mM); pH 7.0; retention retarded by about 0.3 min with compound; no alkylation on irradiation.

Experiment [3] relates to dA10-dT10 (DNA, duplex) AAAAAAAAAA/TTTTTTTTTT
Briefly: photoalkylation (300 nm irradiation), HPLC. The note with it: NH4+ (ammonium acetate, 100 mM); covalent; pH 7.0; 15 or 60 min; new broad signal at about 16.5 min.

The test system of experiment [4] is p(dAdT) (DNA, polymer) AT. Kind of experiment: fluorescence titration, Scatchard (McGhee-von Hippel) fit. As to conditions: Na+ (sodium cacodylate, 50 mM); pH 7.0, 25 °C, <1% DMSO; n fixed 0.3; polynucleotide as phosphates; error half log unit; per base.
The test system of experiment [5] is p(dGdC) (DNA, polymer) GC. The description is as above. As to conditions: Na+ (sodium cacodylate, 50 mM); pH 7.0, 25 °C, <1% DMSO; n fixed 0.3; polynucleotide as phosphates; error half log unit; per base.
A further experiment has as its system pApU (RNA, polymer) A/U. The description is as above. As to conditions: Na+ (sodium cacodylate, 50 mM); pH 7.0, 25 °C, <1% DMSO; n fixed 0.3; polynucleotide as phosphates; error half log unit; per base.

Peptide text beside a SMILES is read from it. * marks the point of attachment. OBn = c1ccc(CO*)cc1

For the compound `CN(C)Cc1cc(C[C@H](NC(=O)[C@H](Cc2c[nH]c3ccccc23)NC(=O)[C@@H](N)Cc2c[nH]c3ccccc23)C(=O)OCc2ccccc2)ccc1O`, the binding entry in experiment [1], in experiment [2] and in experiment [3] was “yes” in each case. Besides, the “log Ka” value in experiment [4] is 5.9 log (M^-1); in experiment [5] it was 6.4 log (M^-1); in the experiment on pApU (RNA, polymer) A/U, 6.0 log (M^-1).
For the compound `N[C@@H](Cc1c[nH]c2ccccc12)C(=O)N[C@@H](Cc1c[nH]c2ccccc12)C(=O)N[C@@H](Cc1ccc(O)cc1)C(=O)OCc1ccccc1` (H-Trp-Trp-Tyr-OBn), in experiment [5], the “log Ka” value is on record as 6.5 log (M^-1).

Values taken from publication PMC8306964 (2021).
